{
  "source": "patent US10244759B2",
  "about": "“Use of forchlorfenuron for promoting plant growth” (KIM-C1 LLC, priority 2013, dated 2019)",
  "key": {"Broccoli": {"system": "Broccoli", "experiment": "Broccoli root dry weight after spray (Example 5)", "assay_type": "in vivo", "settings": "for root weight, Broccoli (AB spray) / root weight, Broccoli (A spray): dry weight 50 days after planting, untreated 0.69", "procedure": "(§1) Plants were sprayed with 0, 2.5, 5, or 7.5 ppm forchlorfenuron, at the cotyledon growth stage in the case of broccoli or at stage 1 in the case of wheat (treatment A), and optionally again with 5 ppm forchlorfenuron three days thereafter (treatment B). The dry weights of the plant roots were measured 50 days after planting."}, "[1]": {"settings": "cited from earlier work"}, "Winter wheat [2]": {"system": "Winter wheat", "experiment": "Wheat root dry weight after spray (Example 5)", "assay_type": "in vivo", "settings": "dry weight 50 days after planting, untreated 0.85", "procedure": "as §1"}, "[3]": {"system": "cotton (G. hirsutum, FiberMax 9058)", "experiment": "Cotton seedling spray, lateral root development and phytotoxicity (Example 2)", "assay_type": "in vivo, Gossypium hirsutum", "settings": "seedlings sprayed 6 days after planting", "procedure": "Commercial cotton seed (G. hirsutum, FiberMax 9058, Bayer CropScience) was planted in conetainers and grown for 6 days prior to spraying with a range of forchlorfenuron concentrations. The plants were grown an additional 5 days prior to washing out the roots. Initial concentrations (0, 5, 10, 15, 20, 25, 50, 100, 250, 500, 1000, and 2000 ppm) were evaluated."}, "[4]": {"system": "Cotton plants (G. hirsutum, FiberMax 9180 B2F)", "experiment": "Cotton yield enhancement under abiotic and biotic stresses, boll count (Example 3)", "assay_type": "in vivo, Gossypium hirsutum", "settings": "for number bolls: at harvest; for % increase over control: number bolls", "procedure": "Cotton plants grown from commercial cotton seeds (G. hirsutum, FiberMax 9180 […], Bayer CropScience) were treated with forchlorfenuron at various stages of growth. […] Control plants were not treated at any stage of growth. At the time of harvest, cotton bolls on all plants were counted, and the percentages of bolls that were open and closed were calculated."}, "[5]": {"system": "cotton seeds (G. hirsutum, FiberMax 9058)", "experiment": "Cotton seed soak, lateral root development (Example 1)", "assay_type": "in vivo, Gossypium hirsutum", "excerpt": "Commercial cotton seeds (G. hirsutum, FiberMax 9058, Bayer CropScience) were submerged in tubs containing forchlorfenuron at concentrations of 0, 25, 50, 100, 250, 500, 1000, 4000 and 8000 ppm for 10 seconds. The seeds were then placed on paper towels on the lab bench and allowed to air dry. Six days after the seed soak, the seeds were planted in “conetainers” and placed in a greenhouse for one week. The soil was removed from the conetainer and the roots were washed by gently dipping the soil into a bucket of water. Roots were photographed and evaluated for lateral root development."}, "[6]": {"system": "Broccoli plants (B. oleracea, var. Waltham 29)", "experiment": "Broccoli root length, stem length and ratio thereof (Example 4)", "assay_type": "in vivo, Brassica oleracea", "settings": "for Root Length AB Spray / Root/Stem Ratio AB Spray / Shoot Length AB Spray / Root Length A Spray / Root/Shoot Ratio A Spray / Shoot Length A Spray: percentage of the untreated level, 60 days after planting", "procedure": "Broccoli plants (B. oleracea, var. […] The root length and stem length were measured 60 days after planting and the ratio of root length to stem length was calculated for every plant."}, "Winter wheat [7]": {"system": "Winter wheat", "experiment": "Winter wheat seed treatment, root weight (Table 3)", "assay_type": "in vivo", "settings": "untreated 0.91"}, "[8]": {"settings": "pH range; cited from earlier work"}, "[9]": {"settings": "2.5 ppm ai at cotyledon stage + 5 ppm 3 days after"}, "[10]": {"settings": "5 ppm ai at cotyledon stage + 5 ppm 3 days after"}, "[11]": {"settings": "7.5 ppm ai at cotyledon stage + 5 ppm 3 days after"}, "[12]": {"settings": "1st square spray, 5 ppm, Day 41"}, "[13]": {"settings": "treating G. hirsutum seeds or plants"}},
  "note": "Entries after “also recorded” stand apart in the source; their conditions may differ.",
  "data": [
    {"smiles": "O=C(Nc1ccccc1)Nc1ccnc(Cl)c1", "note": "[forchlorfenuron, 1-(2-chloropyridin-4-yl)-3-phenylurea]", "values": [
      {"measurement": "root weight, Broccoli (AB spray)", "setting": "Broccoli; [9]", "value": 0.67, "unit": "grams"},
      {"measurement": "root weight, Broccoli (A spray)", "setting": "Broccoli; 2.5 ppm ai at cotyledon stage", "value": 0.68, "unit": "grams"},
      {"measurement": "root weight, Broccoli (AB spray)", "setting": "Broccoli; [10]", "value": 0.79, "unit": "grams"},
      {"measurement": "root weight, Broccoli (A spray)", "setting": "Broccoli; 5 ppm ai at cotyledon stage", "value": 0.8, "unit": "grams"},
      {"measurement": "root weight, Broccoli (AB spray)", "setting": "Broccoli; [11]", "value": 0.79, "unit": "grams"},
      {"measurement": "root weight, Broccoli (A spray)", "setting": "Broccoli; 7.5 ppm ai at cotyledon stage", "value": 0.76, "unit": "grams"},
      {"measurement": "increase in root weight above the untreated level", "setting": "Broccoli; treatment A at 5 ppm, absence of treatment B", "value": "> 10", "unit": "%"},
      {"measurement": "increase in root weight above the untreated level", "setting": "Broccoli; treatment A at 5 ppm, presence of treatment B", "value": "> 10", "unit": "%"},
      {"measurement": "increase in root weight above the untreated level", "setting": "Broccoli; treatment A at 7.5 ppm, absence of treatment B", "value": "> 10", "unit": "%"},
      {"measurement": "increase in root weight above the untreated level", "setting": "Broccoli; treatment A at 7.5 ppm, presence of treatment B", "value": "> 10", "unit": "%"},
      {"measurement": "solubility in water", "setting": "[1]", "value": "weakly soluble in water; also recorded: poorly soluble in water"},
      {"measurement": "root weight, Winter wheat (AB spray)", "setting": "Winter wheat [2]; 2.5 ppm ai at stage 1 + 5 ppm 3 days after", "value": 0.76, "unit": "grams"},
      {"measurement": "root weight, Winter wheat (A spray)", "setting": "Winter wheat [2]; 2.5 ppm ai at stage 1", "value": 0.91, "unit": "grams"},
      {"measurement": "root weight, Winter wheat (AB spray)", "setting": "Winter wheat [2]; 5 ppm ai at stage 1 + 5 ppm 3 days after", "value": 0.71, "unit": "grams"},
      {"measurement": "root weight, Winter wheat (A spray)", "setting": "Winter wheat [2]; 5 ppm ai at stage 1", "value": 0.69, "unit": "grams"},
      {"measurement": "root weight, Winter wheat (AB spray)", "setting": "Winter wheat [2]; 7.5 ppm ai at stage 1 + 5 ppm 3 days after", "value": 0.87, "unit": "grams"},
      {"measurement": "root weight, Winter wheat (A spray)", "setting": "Winter wheat [2]; 7.5 ppm ai at stage 1", "value": 0.72, "unit": "grams"},
      {"measurement": "concentration with highest lateral root development", "setting": "[3]; roots washed out 5 days later", "value": 5, "unit": "ppm"},
      {"measurement": "Severe phytotoxicity, application concentration", "setting": "[3]; 0-2000 ppm tested", "value": "above 50 ppm"},
      {"measurement": "% closed bolls", "setting": "[4]; [12]", "value": 56.7, "unit": "%"},
      {"measurement": "% open bolls", "setting": "[4]; [12]", "value": 43.3, "unit": "%"},
      {"measurement": "number bolls", "setting": "[4]; [12]", "value": 1096},
      {"measurement": "% closed bolls", "setting": "[4]; Seed soak, 250 ppm on Day 1", "value": 66.9, "unit": "%"},
      {"measurement": "% open bolls", "setting": "[4]; Seed soak, 250 ppm on Day 1", "value": 33.1, "unit": "%"},
      {"measurement": "number bolls", "setting": "[4]; Seed soak, 250 ppm on Day 1", "value": 1212},
      {"measurement": "number bolls", "setting": "[4]; Seedling spray, 5 ppm at cotyledon-first leaf stage, Day 21", "value": 1202},
      {"measurement": "% closed bolls", "setting": "[4]; Seedling spray, 5 ppm, Day 21", "value": 70.5, "unit": "%"},
      {"measurement": "% open bolls", "setting": "[4]; Seedling spray, 5 ppm, Day 21", "value": 29.5, "unit": "%"},
      {"measurement": "% increase over control", "setting": "[4]; [12]", "value": 1, "unit": "%"},
      {"measurement": "% increase over control", "setting": "[4]; Seed soak, 250 ppm on Day 1", "value": 12, "unit": "%"},
      {"measurement": "% increase over control", "setting": "[4]; Seedling spray, 5 ppm, Day 21", "value": 11, "unit": "%"},
      {"measurement": "effect on number of healthy cotton bolls per plant", "setting": "[4]; [13]", "value": "increased the number of healthy cotton bolls per plant"},
      {"measurement": "rooting patterns / lateral root lengths", "setting": "[5]; seed treatment 250 ppm vs 0 ppm, eight plants per treatment (FIG. 1)", "value": "clear differences in rooting patterns; also recorded: increases in the lateral root lengths"},
      {"measurement": "concentration of optimal lateral root production", "setting": "[5]; seeds submerged 10 seconds, 0-8000 ppm tested", "value": 250, "unit": "ppm"},
      {"measurement": "effect on lateral root development", "setting": "[5]; [13]", "value": "increased lateral root development"},
      {"measurement": "Root Length AB Spray", "setting": "[6]; [9]", "value": 104.39, "unit": "%"},
      {"measurement": "Root/Stem Ratio AB Spray", "setting": "[6]; [9]", "value": 138.67, "unit": "%"},
      {"measurement": "Shoot Length AB Spray", "setting": "[6]; [9]", "value": 79.98, "unit": "%"},
      {"measurement": "Root Length A Spray", "setting": "[6]; 2.5 ppm ai at cotyledon stage", "value": 91.86, "unit": "%"},
      {"measurement": "Root/Shoot Ratio A Spray", "setting": "[6]; 2.5 ppm ai at cotyledon stage", "value": 94.53, "unit": "%"},
      {"measurement": "Shoot Length A Spray", "setting": "[6]; 2.5 ppm ai at cotyledon stage", "value": 95.25, "unit": "%"},
      {"measurement": "Root Length AB Spray", "setting": "[6]; [10]", "value": 97.39, "unit": "%"},
      {"measurement": "Root/Stem Ratio AB Spray", "setting": "[6]; [10]", "value": 124.29, "unit": "%"},
      {"measurement": "Shoot Length AB Spray", "setting": "[6]; [10]", "value": 90.62, "unit": "%"},
      {"measurement": "Root Length A Spray", "setting": "[6]; 5 ppm ai at cotyledon stage", "value": 100.6, "unit": "%"},
      {"measurement": "Root/Shoot Ratio A Spray", "setting": "[6]; 5 ppm ai at cotyledon stage", "value": 137.48, "unit": "%"},
      {"measurement": "Shoot Length A Spray", "setting": "[6]; 5 ppm ai at cotyledon stage", "value": 80.12, "unit": "%"},
      {"measurement": "Root Length AB Spray", "setting": "[6]; [11]", "value": 106.69, "unit": "%"},
      {"measurement": "Root/Stem Ratio AB Spray", "setting": "[6]; [11]", "value": 119.08, "unit": "%"},
      {"measurement": "Shoot Length AB Spray", "setting": "[6]; [11]", "value": 90.13, "unit": "%"},
      {"measurement": "Root Length A Spray", "setting": "[6]; 7.5 ppm ai at cotyledon stage", "value": 97.46, "unit": "%"},
      {"measurement": "Root/Shoot Ratio A Spray", "setting": "[6]; 7.5 ppm ai at cotyledon stage", "value": 105.16, "unit": "%"},
      {"measurement": "Shoot Length A Spray", "setting": "[6]; 7.5 ppm ai at cotyledon stage", "value": 91.78, "unit": "%"},
      {"measurement": "increase in the ratio of root length to stem length above the untreated level", "setting": "[6]; Treatment A alone at 5 ppm", "value": "> 20", "unit": "%"},
      {"measurement": "effect on ratio of root length to stem length", "setting": "[6]; moderate concentrations", "value": "increases the ratio of root length to stem length"},
      {"measurement": "increase in the ratio of root length to stem length above the untreated level", "setting": "[6]; treatment A at 2.5 ppm together with treatment B", "value": "> 20", "unit": "%"},
      {"measurement": "increase in the ratio of root length to stem length above the untreated level", "setting": "[6]; treatment A at 5 ppm together with treatment B", "value": "> 20", "unit": "%"},
      {"measurement": "root weight, Winter Wheat Seed Treat.", "setting": "Winter wheat [7]; 2.5 ppm ai", "value": 0.97, "unit": "grams"},
      {"measurement": "root weight, Winter Wheat Seed Treat.", "setting": "Winter wheat [7]; 5 ppm ai", "value": 0.81, "unit": "grams"},
      {"measurement": "root weight, Winter Wheat Seed Treat.", "setting": "Winter wheat [7]; 7.5 ppm ai", "value": 0.86, "unit": "grams"},
      {"measurement": "stability", "setting": "[8]", "value": "stable across a wide pH range"}
    ]}
  ]
}
